Our source for the IC50 and EC50 values is patent US8829007B2 (priority 2009, dated 2014).

Read-outs that look alike come from different tables or passages of the source.

The subject of experiment [1] is influenza A virus (A/PR/8/34). Nature of the experiment: microbe, parasite or virus in culture. The experiment is classed as cell-based.
For experiment [2], the system named is A/PR/8/34 influenza virus. The experiment is described as follows: microbe, parasite or virus in culture. In kind it is cell-based.
Setting [3] is: Influenza A virus, PR/8, MDCK, mean all, A/PR/8/34 infected MDCK cells, cell protection (CPE), read-out: IC50.
Setting [4] is: Influenza A virus, PR/8, mean all, A/PR/8/34 influenza virus replication, bDNA, read-out: EC50.
[5] abbreviates: Influenza A virus, PR/8, MDCK, mean all, survival of A/PR/8/34 infected MDCK cells (CPE assay), read-out: IC50.
Setting [6] is: Influenza A virus, PR/8, mean all, replication of A/PR/8/34 influenza virus (bDNA assay), read-out: EC50.
Setting [7] is: Influenza A virus, PR/8, MDCK, MDCK cells, A/PR/8/34, ATP readout, mean all, read-out: Cell Flu, MDCK protection, ATP (All: IC50: uM)(Mean (All)).
Where [8] appears, read: Influenza A virus, PR/8, 30 h, HA(−) 30 hr, A/PR/8, bDNA, mean all, read-out: Cell Influenza HA(−) 30 hr A/PR/8 bDNA:bDNA EC50 uM(Mean (All)).

With `CCNC(=O)C1CCCC(Nc2nc(-c3c[nH]c4ncc(Cl)cc34)ncc2F)C1O` (centres unmarked) [Compound 815, 3-[[2-(5-chloro-1H-pyrrolo[2,3-b]pyridin-3-yl)-5-fluoro-pyrimidin-4-yl]amino]-N-ethyl-2-hydroxy-cyclohexanecarboxamide], the half-maximal inhibitory concentration (IC50) (as a rule, the concentration that gives 50% inhibition) in experiment [1] (setting [3]) is below 5 µM. The EC50 in experiment [2] (setting [4]) was below 5 µM.

On to `C[C@@]1(C(=O)O)CCCC(Nc2nc(-c3c[nH]c4ncc(Cl)cc34)ncc2F)C1` (some centres unmarked) [Compound 826], for which the IC50 in experiment [1] (setting [3]) was below 5 µM. Besides, the EC50 in experiment [2] (setting [4]) was below 5 µM.

For the molecule `CO[C@@H]1CCC[C@H](Nc2nc(-c3c[nH]c4ncc(Cl)cc34)ncc2F)[C@H]1O` [Compound 831, (1R,2S,6R)-2-(2-(5-chloro-1H-pyrrolo[2,3-b]pyridin-3-yl)-5-fluoropyrimidin-4-ylamino)-6-methoxycyclohexanol], the IC50 in experiment [1] (setting [3]) was below 5 µM. Moreover, the EC50 in experiment [2] (setting [4]) is below 5 µM.

As to `Fc1cnc(-c2c[nH]c3ncc(Cl)cc23)nc1N[C@H]1CCC[C@@H](c2nnn[nH]2)C1` [Compound 855, N-((1S,3R)-3-(1H-tetrazol-5-yl)cyclohexyl)-2-(5-chloro-1H-pyrrolo[2,3-b]pyridin-3-yl)-5-fluoropyrimidin-4-amine], the IC50 in experiment [1] (setting [3]) is below 5 µM. Further, in experiment [2] (setting [4]), the EC50 is below 5 µM.

As for `CC(=O)NC[C@]1(O)CCC[C@H](Nc2nc(-c3c[nH]c4ncc(Cl)cc34)ncc2F)C1` [Compound 857], the 50% inhibitory concentration (IC50) in experiment [1] (setting [3]) was below 5 µM. The EC50 in experiment [2] (setting [4]) is below 5 µM.

Take `C[C@@]1(O)CCC[C@H](Nc2nc(-c3c[nH]c4ncc(Cl)cc34)ncc2F)[C@H]1O` [Compound 860]: the IC50 in experiment [1] (read-out: IC50) was below 5 µM. The EC50 in experiment [2] (mean all, A/PR/8/34 influenza virus replication, bDNA, read-out: EC50) is below 5 µM.

With `N#CC1(C(=O)N[C@@H]2CCC[C@H](Nc3nc(-c4c[nH]c5ncc(F)cc45)ncc3F)C2)CC1` [Compound 871], in experiment [1] (setting [3]), the IC50 was below 5 µM. Besides, the EC50 in experiment [2] (setting [4]) was below 5 µM.

In the case of `N=C(N)N1CCC[C@H](Nc2nc(-c3c[nH]c4ncc(Cl)cc34)ncc2F)C1` [Compound 881], in experiment [1] (setting [3]), the IC50 is above 10 µM. For the same molecule, the EC50 in experiment [2] (setting [4]) was above 3.3 µM.

Consider `CS(=O)(=O)C[C@@]1(O)CCC[C@H](Nc2nc(-c3c[nH]c4ncc(Cl)cc34)ncc2F)C1` [Compound 886], for which the IC50 in experiment [1] (read-out: IC50) was below 5 µM. Besides, the EC50 in experiment [2] (mean all, replication of A/PR/8/34 influenza virus (bDNA assay), read-out: EC50) is below 5 µM.

As to `O=C1CCCN1[C@@H]1CCC[C@H](Nc2nc(-c3c[nH]c4ncc(Cl)cc34)ncc2F)C1` [Compound 956], the half-inhibitory concentration (IC50) in experiment [1] (setting [5]) is below 5 µM. Moreover, the EC50 in experiment [2] (setting [6]) is below 5 µM.

Turning to `CN1CCN([C@@H]2CCCC(Nc3nc(-c4c[nH]c5ncc(Cl)cc45)ncc3F)C2)C1=O` (some centres unmarked) [Compound 958], the half-inhibitory concentration (IC50) in experiment [1] (setting [5]) is below 5 µM. For the same molecule, the EC50 in experiment [2] (setting [6]) was below 5 µM.

In the case of `O=C1CC2(CCC[C@H](Nc3nc(-c4c[nH]c5ncc(Cl)cc45)ncc3F)C2)CN1` (stereo partly drawn) [Compound 969, (7S)-7-(2-(5-chloro-1H-pyrrolo[2,3-b]pyridin-3-yl)-5-fluoropyrimidin-4-ylamino)-2-azaspiro[4.5]decan-3-one], the 50% inhibitory concentration (IC50) in experiment [1] (setting [5]) is below 5 µM. For the same molecule, the EC50 in experiment [2] (setting [6]) was below 5 µM.

For the molecule `CN1C[C@@]2(CCC[C@H](Nc3nc(-c4c[nH]c5ncc(Cl)cc45)ncc3F)C2)OC1=O` [Compound 971, (5S,7S)-7-(2-(5-chloro-1H-pyrrolo[2,3-b]pyridin-3-yl)-5-fluoropyrimidin-4-ylamino)-3-methyl-1-oxa-3-azaspiro[4.5]decan-2-one], the half-inhibitory concentration (IC50) in experiment [1] (setting [5]) was below 5 µM. For the same molecule, the EC50 in experiment [2] (setting [6]) was below 5 µM.

As for `N#CC[C@]1(O)CCC[C@H](Nc2nc(-c3c[nH]c4ncc(F)cc34)ncc2F)C1` [Compound 979, 2-((1S,3S)-3-(5-fluoro-2-(5-fluoro-1H-pyrrolo[2,3-b]pyridin-3-yl)pyrimidin-4-ylamino)-1-hydroxycyclohexyl)ethanenitrile], the IC50 in experiment [1] (setting [7]) is below 5 µM. The EC50 in experiment [2] (setting [8]) was below 5 µM.

Regarding `O[C@H]1[C@H](O)CCCC[C@@H]1Nc1nc(-c2c[nH]c3ncc(F)cc23)ncc1F` [Compound 984], in experiment [1] (setting [7]), the half-inhibitory concentration (IC50) is below 5 µM. In addition, in experiment [2] (setting [8]), the EC50 is below 5 µM.

For the molecule `O=C(O)[C@H]1C2CCC(CC2)[C@@H]1Nc1nc(-c2c[nH]c3ncc(F)cc23)ncc1F` [Compound 1070, (2S,3S)-3-((2-(5-fluoro-1H-pyrrolo[2,3-b]pyridin-3-yl)-5-fluoropyrimidin-4-yl)amino)bicyclo[2.2.2]octane-2-carboxylic acid], in experiment [1] (setting [7]), the IC50 is below 5 µM. The EC50 in experiment [2] (setting [8]) was below 5 µM.

For `COc1c(F)cnc2[nH]cc(-c3ncc(F)c(N[C@H]4CCC[C@@H](NC(=O)N5CC[C@@H](F)C5)C4)n3)c12` [Compound 1104, (R)-3-fluoro-N-((1R,3S)-3-((5-fluoro-2-(5-fluoro-4-methoxy-1H-pyrrolo[2,3-b]pyridin-3-yl)pyrimidin-4-yl)amino)cyclohexyl)pyrrolidine-1-carboxamide], the IC50 in experiment [1] (setting [7]) was below 5 µM. In addition, the EC50 in experiment [2] (setting [8]) is below 5 µM.

Regarding `N=C(N)N[C@@H]1CCC[C@H](Nc2nc(-c3c[nH]c4ncc(F)cc34)ncc2F)C1` [Compound 1143, 1-((1R,3S)-3-(5-fluoro-2-(5-fluoro-1H-pyrrolo[2,3-b]pyridin-3-yl)pyrimidin-4-ylamino)cyclohexyl)guanidine], in experiment [1] (setting [7]), the IC50 is below 5 µM. For the same molecule, in experiment [2] (setting [8]), the EC50 is below 5 µM.

Take `O=C(O)c1coc(N[C@@H]2CCC[C@H](Nc3nc(-c4c[nH]c5ncc(F)cc45)ncc3F)C2)n1` [Compound 1144, 2-((1R,3S)-3-(5-fluoro-2-(5-fluoro-1H-pyrrolo[2,3-b]pyridin-3-yl)pyrimidin-4-ylamino)cyclohexylamino)oxazole-4-carboxylic acid]: in experiment [1] (setting [7]), the half-inhibitory concentration (IC50) was below 5 µM. For the same molecule, the EC50 in experiment [2] (setting [8]) was below 5 µM.

Consider `O=C(O[C@H]1CCC[C@@H](Nc2nc(-c3c[nH]c4ncc(F)cc34)ncc2F)C1)N1CC[C@H](F)C1` [Compound 1151, (S)-(1S,3R)-3-((5-fluoro-2-(5-fluoro-1H-pyrrolo[2,3-b]pyridin-3-yl)-pyrimidin-4-yl)amino)cyclohexyl 3-fluoropyrrolidine-1-carboxylate], for which the IC50 in experiment [1] (setting [7]) was below 5 µM. Also, the EC50 in experiment [2] (setting [8]) is below 5 µM.

On to `O=C(O)[C@H]1C2CCC(CC2)[C@@H]1Nc1nc(-c2c[nH]c3ncc(Cl)cc23)ncc1F` [Compound 1184, (2S,3S)-3-((2-(5-chloro-1H-pyrrolo[2,3-b]pyridin-3-yl)-5-fluoropyrimidin-4-yl)amino)bicyclo[2.2.2]octane-2-carboxylic acid], for which the IC50 in experiment [1] (setting [7]) is below 5 µM. Further, the EC50 in experiment [2] (setting [8]) was below 5 µM.

For the molecule `C[C@H]1C[C@@H](NC(=O)N2CC[C@H](F)C2)C[C@@H](Nc2nc(-c3c[nH]c4ncc(F)cc34)ncc2F)C1` [compound 1067], the IC50 in experiment [1] (setting [7]) was below 5 µM. In experiment [2] (setting [8]), the EC50 was below 5 µM.

For the molecule “(1S,3R)—N1-(5-fluoro-2-(5-fluoro-1H-pyrrolo[2,3-b]pyridin-3-yl)pyrimidin-4-yl)-N3-(pyrazin-2-yl)cyclohexane-1,3-diamine [Compound 985]”, in experiment [1] (MDCK cells, A/PR/8/34, ATP readout, mean all, read-out: Cell Flu, MDCK protection, ATP (All: IC50: uM)(Mean (All))), the 50% inhibitory concentration (IC50) was below 5 µM. Besides, the EC50 in experiment [2] (HA(−) 30 hr, A/PR/8, bDNA, mean all, read-out: Cell Influenza HA(−) 30 hr A/PR/8 bDNA:bDNA EC50 uM(Mean (All))) is below 5 µM.

As for “(R)-methyl 2-(3-((2-(5-chloro-1H-pyrrolo[2,3-b]pyridin-3-yl)-5-fluoropyrimidin-4-ylamino)methyl)piperidine-1-carboxamido)ethanoate [Compound 125]”, the half-maximal inhibitory concentration (IC50) in experiment [1] (read-out: IC50 (mean all)) is below 5 µM. Further, the EC50 in experiment [2] (read-out: EC50 (mean all)) was below 5 µM.

In the case of “(R)—N-((1-(3-bromophenylsulfonyl)piperidin-3-yl)methyl)-2-(5-chloro-1H-pyrrolo[2,3-b]pyridin-3-yl)-5-fluoropyrimidin-4-amine [Compound 88]”, in experiment [1] (read-out: IC50 (mean all)), the concentration for half-maximal inhibition (IC50) was below 5 µM. Besides, in experiment [2] (read-out: EC50 (mean all)), the EC50 is below 5 µM.
